In ChEMBL document CHEMBL1255321, “Prevalence of the erm(T) gene in clinical isolates of erythromycin-resistant group D Streptococcus and Enterococcus” (2008):
Values after ≈ are worked out from the molar mass of the structure shown. Active and inactive are the calls of the source. No cut-off for these calls is given here.

Key:
[1] = system: Streptococcus sp.; assay: Antimicrobial activity against Group D Streptococcus sp. clinical isolates expressing erm(T) gene by Etest; format: functional
[2] = system: Streptococcus sp.; assay: Antimicrobial activity against erythromycin-resistant Group D Streptococcus sp. clinical isolates expressing erm(T) gene by Etest; format: functional
[3] = system: Streptococcus sp.; assay: Antimicrobial activity against Group D Streptococcus sp. clinical isolates assessed as resistant isolates; format: functional
[4] = system: Enterococcus faecalis; assay: Antimicrobial activity against Group D Enterococcus faecalis clinical isolate expressing erm(B) gene by disk diffusion method; format: functional, organism-based
[5] = system: Enterococcus faecium; assay: Antimicrobial activity against Group D Enterococcus faecium clinical isolate expressing erm(B) and erm(T) genes by disk diffusion method; format: functional, organism-based
[6] = system: Enterococcus faecium; assay: Antimicrobial activity against Group D Enterococcus faecium clinical isolate expressing erm(B) gene by disk diffusion method; format: functional, organism-based

SMILES | MIC [1] | MIC [2] | Activity [3] | Activity [4] | Activity [5] | Activity [6]
CC[C@H]1OC(=O)[C@H](C)[C@@H](O[C@H]2C[C@@](C)(OC)[C@@H](O)[C@H](C)O2)[C@H](C)[C@@H](O[C@@H]2O[C@H](C)C[C@H](N(C)C)[C@H]2O)[C@](C)(O)C[C@@H](C)C(=O)[C@H](C)[C@@H](O)[C@]1(C)O [ERYTHROMYCIN] | 0.064 µg/mL (≈ 0.0872 µM) | ≥ 256 µg/mL | 54% | inactive | inactive | inactive
CCC[C@@H]1C[C@@H](C(=O)N[C@@H]([C@H]2O[C@H](SC)[C@H](O)[C@@H](O)[C@H]2O)[C@H](C)Cl)N(C)C1 [CLINDAMYCIN] | 0.125 µg/mL (≈ 0.294 µM) | – | 33% | – | – | –
